Laboratory results reported in US20250243203A1, “NICOTINAMIDE- AND BENZAMIDE-BASED COMPOUNDS, CONJUGATES, AND COMPOSITIONS AS INHIBITORS OF TRANSLATIONAL- AND TRANSCRIPTIONAL-RELATED KINASES” (PURDUE RESEARCH FOUNDATION, priority 2022, published 2025).
Read-outs that look alike come from different tables or passages of the source.

Key:
[1] = molecular target: T1, AXL receptor tyrosine kinase (AXL) (Homo sapiens, UniProt P30530); assay: KINOMEscan competition binding assay (Eurofins DiscoverX), AXL
T1 construct: purchased Eurofins DiscoverX (KINOMEscan service)
T1 sequence (P30530 26-894): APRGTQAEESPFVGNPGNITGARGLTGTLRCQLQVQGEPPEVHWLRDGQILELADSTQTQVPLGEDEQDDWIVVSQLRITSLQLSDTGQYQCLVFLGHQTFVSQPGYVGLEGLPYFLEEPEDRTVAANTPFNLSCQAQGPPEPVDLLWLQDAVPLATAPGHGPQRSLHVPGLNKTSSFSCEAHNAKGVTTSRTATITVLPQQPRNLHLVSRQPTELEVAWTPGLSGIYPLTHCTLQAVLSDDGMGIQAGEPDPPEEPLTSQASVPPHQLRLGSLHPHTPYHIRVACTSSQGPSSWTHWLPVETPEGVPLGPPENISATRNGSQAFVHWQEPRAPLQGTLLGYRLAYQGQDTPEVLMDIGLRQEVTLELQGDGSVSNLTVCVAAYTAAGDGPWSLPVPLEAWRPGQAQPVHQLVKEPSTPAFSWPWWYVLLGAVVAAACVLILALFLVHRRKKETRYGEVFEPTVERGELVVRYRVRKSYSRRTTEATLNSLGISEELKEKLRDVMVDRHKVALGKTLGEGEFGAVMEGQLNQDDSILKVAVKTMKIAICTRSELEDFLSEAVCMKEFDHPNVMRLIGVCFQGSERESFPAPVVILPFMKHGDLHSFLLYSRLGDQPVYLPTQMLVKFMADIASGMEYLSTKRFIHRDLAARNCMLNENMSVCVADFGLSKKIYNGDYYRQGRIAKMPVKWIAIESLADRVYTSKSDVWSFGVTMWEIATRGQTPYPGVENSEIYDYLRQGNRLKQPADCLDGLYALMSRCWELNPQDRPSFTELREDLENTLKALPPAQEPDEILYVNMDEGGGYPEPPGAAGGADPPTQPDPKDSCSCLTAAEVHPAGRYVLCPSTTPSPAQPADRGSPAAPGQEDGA
Experimental: The affinity of several compounds hereof having a substituent on the imidazo[1,2-b]pyridazine moiety at position-6, wherein the substituent comprised one or more ring moieties was evaluated with respect to two TAM kinases: AXL and MERTK. […] The assay uses DNA-tagged kinase, an immobilized ligand, and the test compound. Quantitative polymerase chain reaction (PCR) of the DNT tag was then used to measure the ability of the tested compound to displace the immobilized ligand.

[2] = Oral bioavailability study in mice; assay type: in vivo, Male CD1 Mice; conditions: 10 mg/Kg, FIG. 5
Experimental: The bioavailability and Cmax of the ring-6-substituted imidazo[1,2-b]pyridazine compounds were also assessed.
Briefly, compounds were dissolved in 10% dimethylsulfoxide (DMSO)/90% (20% HP-β-CD in water (w/w)). Male CD1 Mice (n=3) were dosed orally with 10 mg/Kg of each compound (HSND80, HSND41, HSND101, HSND102, HSND141, and HSND156). Blood was sampled at 0.25 hours, 0.5 hour, 1 hour, 2 hours, 4 hours, 8 hours, and 24 hours post dose, and the concentration of compound in blood at each specific time point was determined via liquid chromatography-mass spectrometry (LC-MS) (high-performance liquid chromatography (HPLC) instrument: Shimadzu; MS instrument: AB API 5500 LC/MS/MS; Column: HALO C18 90 A 2.7 μm (30*2.1 mm); Mobile phase A: 5% Acetonitrile in Water (0.1% Formic acid); Mobile phase B: 95% Acetonitrile in Water (0.1% Formic acid)).

`C[C@@H]1CN(c2ccc3ncc(C#Cc4cncc(C(=O)Nc5ccc(CN6CCN(C)CC6)c(C(F)(F)F)c5)c4)n3n2)C[C@H](C)O1` [HSND80, 5-((6-((2S,6R)-2,6-Dimethylmorpholino)imidazo[1,2-b]pyridazin-3-yl)ethynyl)-N-(4-((4-methylpiperazin-1-yl)methyl)-3-(trifluoromethyl)phenyl)nicotinamide] gave a Kd ([1]; FIG. 6A, replicate 1, read-out: Kd AXL, replicate 1) of 0.77 nM, a Kd ([1]; FIG. 6B, replicate 2, read-out: Kd AXL, replicate 2) of 1.3 nM and a Kd ([1]; Table 1, DiscoverX Eurofins, read-out: Kd AXL) of 1.1 nM. The “bioavailability” value [2] was “more bioavailablity than unsubstituted morpholine (compound HSND41)”.
